Data from US7786141B2 (Vertex Pharmaceuticals Incorporated, priority 2004, dated 2010).
Like-named read-outs stand apart in the source and are kept apart here.

Legend:
M1 muscarinic receptor = biological target: T1, M1 muscarinic receptor (Homo sapiens, UniProt P11229); test: Functional mobilization of intracellular calcium (FLIPR) in M1-CHO cells; format: cell-based
T1 construct: expressed in transfected cells; host or cells: CHO (M1-CHO)
T1 sequence (P11229 1-460): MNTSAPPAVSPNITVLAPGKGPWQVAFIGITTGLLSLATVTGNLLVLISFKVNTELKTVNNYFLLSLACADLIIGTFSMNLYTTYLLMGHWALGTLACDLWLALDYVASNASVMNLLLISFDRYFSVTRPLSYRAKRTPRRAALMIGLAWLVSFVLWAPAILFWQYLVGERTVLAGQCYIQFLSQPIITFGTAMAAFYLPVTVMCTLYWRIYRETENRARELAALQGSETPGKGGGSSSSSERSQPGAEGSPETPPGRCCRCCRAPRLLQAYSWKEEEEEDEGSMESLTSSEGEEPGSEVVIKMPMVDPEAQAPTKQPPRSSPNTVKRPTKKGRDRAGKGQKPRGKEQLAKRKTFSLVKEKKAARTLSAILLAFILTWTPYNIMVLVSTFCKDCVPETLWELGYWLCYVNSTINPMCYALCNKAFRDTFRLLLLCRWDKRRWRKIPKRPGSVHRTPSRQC
Method in brief: (§1)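 Steps: seed M1- or M4-CHO cells 18-24 hrs ahead; load calcium dye with 1 mM probenecid; add test compound (0.5% DMSO final), either alone for agonism or 15 min before EC80 carbachol for inhibition; record FLIPR fluorescence for 60 sec.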

M4 muscarinic receptor = biological target: T2, M4 muscarinic receptor (Homo sapiens, UniProt P08173); test: Functional mobilization of intracellular calcium (FLIPR) in M4-CHO cells; format: cell-based
T2 construct: expressed in transfected cells; host or cells: CHO (M4-CHO)
T2 sequence (P08173 1-479): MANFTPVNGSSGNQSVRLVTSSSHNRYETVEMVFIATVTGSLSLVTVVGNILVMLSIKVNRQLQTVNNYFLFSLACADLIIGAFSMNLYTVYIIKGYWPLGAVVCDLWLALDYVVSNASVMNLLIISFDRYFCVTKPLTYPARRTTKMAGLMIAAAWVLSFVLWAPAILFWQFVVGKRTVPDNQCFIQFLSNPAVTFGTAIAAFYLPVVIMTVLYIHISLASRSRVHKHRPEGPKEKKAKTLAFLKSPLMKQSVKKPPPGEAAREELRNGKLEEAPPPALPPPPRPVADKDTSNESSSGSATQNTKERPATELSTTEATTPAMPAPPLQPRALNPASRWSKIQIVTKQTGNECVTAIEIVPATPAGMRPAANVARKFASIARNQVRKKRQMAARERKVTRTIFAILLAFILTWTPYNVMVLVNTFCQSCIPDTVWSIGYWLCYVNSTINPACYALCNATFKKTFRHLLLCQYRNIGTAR
Method in brief: as §1

[1] = M1 receptor, calcium mobilization
[2] = M1 receptor, calcium mobilization, read-out: M1 Efficacy
[3] = M4 receptor, calcium mobilization
[4] = M4 receptor, calcium mobilization, read-out: M4 Efficacy
[5] = Table 4, 100% efficacy is the maximum response obtained with the Carbachol control
[6] = Table 4, M1 receptor, calcium mobilization (FLIPR)
[7] = Table 4, M4 receptor, calcium mobilization (FLIPR)
[8] = 100% efficacy is the maximum response obtained with the Carbachol control, Table 5
[9] = Table 4, modulating M1 receptor
[10] = Table 4, modulating M4 receptor

CCC(=O)CCN1CC2(CCN(C[C@@H]3C[C@H]4C=C[C@H]3C4)CC2)c2cc(F)ccc21 [compound 12]
M1 Activity (M1 muscarinic receptor; [1]): xxx (activity was measured to be less than 0.1 μM)
Emax (M1 muscarinic receptor; [2]): < 65%
M4 Activity (M4 muscarinic receptor; [3]): xx (activity was measured to be between 0.1 μM and 1.0 μM)
Emax (M4 muscarinic receptor; [4]): < 65%

COC(=O)N1CCC(N2CCC3(CC2)CN(C(C)=O)c2ccc(C)cc23)CC1 [compound 312]
M1 Activity (M1 muscarinic receptor; [1]): x (activity was measured to be greater than 1.0 μM)
Emax (M1 muscarinic receptor; [2]): < 65%
M4 Activity (M4 muscarinic receptor; [3]): x (activity was measured to be greater than 1.0 μM)
Emax (M4 muscarinic receptor; [4]): < 65%

CCCC1CCC(N2CCC3(CC2)CNc2ccc(Cl)cc23)CC1 (centres unmarked) [compound 341]
M1 Activity (M1 muscarinic receptor; [1]): x (activity was measured to be greater than 1.0 μM)
Emax (M1 muscarinic receptor; [2]): < 65%
M4 Activity (M4 muscarinic receptor; [3]): x (activity was measured to be greater than 1.0 μM)
Emax (M4 muscarinic receptor; [4]): < 65%

COC(=O)N1CC2(CCN(C3CC4CCC(C3)N4C(=O)OC(C)C)CC2)c2cc(F)ccc21 (centres unmarked) [compound 97]
M1 Activity (M1 muscarinic receptor; [1]): xxx (activity was measured to be less than 0.1 μM)
Emax (M1 muscarinic receptor; [2]): 65 to 85%
M4 Activity (M4 muscarinic receptor; [3]): x (activity was measured to be greater than 1.0 μM)
Emax (M4 muscarinic receptor; [4]): < 65%

CC(=O)N1CC2(CCN(C3CCN(c4cncc(C5=CCCC5)n4)CC3)CC2)c2ccccc21 [compound 975]
Emax (M1 muscarinic receptor; [5]): < 25%
M1 Activity (M1 muscarinic receptor; [6]): x (activity was measured to be greater than 5.0 μM)
Emax (M4 muscarinic receptor; [5]): < 25%
M4 Activity (M4 muscarinic receptor; [7]): x (activity was measured to be greater than 5.0 μM)

CC(=O)N1CC2(CCN(C3CCCC3)CC2)c2cc(F)ccc21 [compound 343]
M1 Activity (M1 muscarinic receptor; [1]): xxx (activity was measured to be less than 0.1 μM)
Emax (M1 muscarinic receptor; [2]): 65 to 85%
M4 Activity (M4 muscarinic receptor; [3]): xxx (activity was measured to be less than 0.1 μM)
Emax (M4 muscarinic receptor; [4]): < 65%

COCCOC(=O)N1C2CCC1CC(N1CCC3(CC1)CN(C(=O)OC1CCC1)c1ccc(F)cc13)C2 (centres unmarked) [compound 106]
M1 Activity (M1 muscarinic receptor; [1]): xxx (activity was measured to be less than 0.1 μM)
Emax (M1 muscarinic receptor; [2]): 65 to 85%
M4 Activity (M4 muscarinic receptor; [3]): xx (activity was measured to be between 0.1 μM and 1.0 μM)
Emax (M4 muscarinic receptor; [4]): < 65%

CN(C)C(=O)N1CC2(CCN(C3CCN(c4ccc(F)cc4)CC3)CC2)c2cc(F)ccc21 [compound 1026]
Emax (M1 muscarinic receptor; [8]): 25 to 100%
EC50 (M1 muscarinic receptor; CHO cells expressing M1, calcium mobilization, Table 5): 2000 to 10000 nM
Emax (M4 muscarinic receptor; [8]): < 25%
EC50 (M4 muscarinic receptor; CHO cells expressing M4, calcium mobilization, Table 5): < 2000 nM

CCOC(=O)N1CCC(N2CCC3(CC2)CN(C(C)=O)c2c(-c4ccccc4)cccc23)CC1 [compound 857]
Emax (M1 muscarinic receptor; [5]): 25 to 100%
M1 Activity (M1 muscarinic receptor; [6]): x (activity was measured to be greater than 5.0 μM)
Emax (M4 muscarinic receptor; [5]): < 25%
M4 Activity (M4 muscarinic receptor; [7]): x (activity was measured to be greater than 5.0 μM)

CC#CCN1CC2(CCN(C3CCN(C(=O)OCC)CC3)CC2)c2cc(F)ccc21 [compound 844]
Emax (M1 muscarinic receptor; [5]): 25 to 100%
M1 Activity (M1 muscarinic receptor; [6]): xxx (activity was measured to be less than 2.0 μM)
Emax (M4 muscarinic receptor; [5]): 25 to 100%
M4 Activity (M4 muscarinic receptor; [7]): xxx (activity was measured to be less than 2.0 μM)

CC(=O)N[C@H]1CCC2(CCN(CC3CC4C=CC3C4)CC2)c2ccccc21 (some centres unmarked) [compound 740]
Emax (M1 muscarinic receptor; [5]): 25 to 100%
M1 Activity (M1 muscarinic receptor; [9]): xxx (activity was measured to be less than 2.0 μM)
Emax (M4 muscarinic receptor; [5]): 25 to 100%
M4 Activity (M4 muscarinic receptor; [10]): xxx (activity was measured to be less than 2.0 μM)

O=C(O[C@H]1CCOC1)N1C2CCC1CC(N1CCC3(CC1)COc1ccc(F)cc13)C2 (some centres unmarked) [compound 212]
M1 Activity (M1 muscarinic receptor; [1]): x (activity was measured to be greater than 1.0 μM)
Emax (M1 muscarinic receptor; [2]): < 65%
M4 Activity (M4 muscarinic receptor; [3]): x (activity was measured to be greater than 1.0 μM)
Emax (M4 muscarinic receptor; [4]): < 65%

COC1CCCCC1N1CCC2(CC1)CN(C(C)=O)c1ccc(F)cc12 (centres unmarked) [compound 512]
Emax (M1 muscarinic receptor; [5]): < 25%
M1 Activity (M1 muscarinic receptor; [9]): x (activity was measured to be greater than 5.0 μM)
Emax (M4 muscarinic receptor; [5]): < 25%
M4 Activity (M4 muscarinic receptor; [10]): x (activity was measured to be greater than 5.0 μM)

COC(=O)N1C2CCC1CC(N1CCC3(CC1)CN(C(C)=O)c1ccccc13)C2 (centres unmarked) [compound 679]
Emax (M1 muscarinic receptor; [5]): 25 to 100%
M1 Activity (M1 muscarinic receptor; [9]): xxx (activity was measured to be less than 2.0 μM)
Emax (M4 muscarinic receptor; [5]): 25 to 100%
M4 Activity (M4 muscarinic receptor; [10]): xxx (activity was measured to be less than 2.0 μM)

COCCOC(=O)N1C2CCC1CC(N1CCC3(CC1)CN(C(=O)OC)c1ccc(F)cc13)C2 (centres unmarked) [compound 33]
M1 Activity (M1 muscarinic receptor; [1]): xxx (activity was measured to be less than 0.1 μM)
Emax (M1 muscarinic receptor; [2]): > 85%
M4 Activity (M4 muscarinic receptor; [3]): xxx (activity was measured to be less than 0.1 μM)
Emax (M4 muscarinic receptor; [4]): > 85%

O=C(C1CCC1)N1C2CCC1CC(N1CCC3(CC1)COc1ccc(F)cc13)C2 (centres unmarked) [compound 134]
M1 Activity (M1 muscarinic receptor; [1]): xxx (activity was measured to be less than 0.1 μM)
Emax (M1 muscarinic receptor; [2]): > 85%
M4 Activity (M4 muscarinic receptor; [3]): xx (activity was measured to be between 0.1 μM and 1.0 μM)
Emax (M4 muscarinic receptor; [4]): < 65%

CC(=O)N1CC2(CCN(C3CCN(C(=O)OC(C)C)CC3)CC2)c2ccccc21 [compound 440]
Emax (M1 muscarinic receptor; [5]): 25 to 100%
M1 Activity (M1 muscarinic receptor; [9]): xxx (activity was measured to be less than 2.0 μM)
Emax (M4 muscarinic receptor; [5]): 25 to 100%
M4 Activity (M4 muscarinic receptor; [10]): xxx (activity was measured to be less than 2.0 μM)

CC(=O)N[C@H]1CCC2(CCN(CCC3CCCCC3)CC2)c2ccccc21 [compound 568]
Emax (M1 muscarinic receptor; [5]): 25 to 100%
M1 Activity (M1 muscarinic receptor; [9]): xxx (activity was measured to be less than 2.0 μM)
Emax (M4 muscarinic receptor; [5]): < 25%
M4 Activity (M4 muscarinic receptor; [10]): xxx (activity was measured to be less than 2.0 μM)

Cc1ccc2c(c1)C1(CCN(CC3CC4CCC3C4)CC1)CN2C(=O)OC(C)(C)C (centres unmarked) [compound 382]
EC50 (M1 muscarinic receptor; M1-CHO cells, calcium mobilization (FLIPR)): < 100 nM
Emax (M1 muscarinic receptor; M1-CHO cells, calcium mobilization (FLIPR), read-out: M1 Efficacy): 65 to 85%
EC50 (M4 muscarinic receptor; M4-CHO cells, calcium mobilization (FLIPR)): > 1000 nM
Emax (M4 muscarinic receptor; M4-CHO cells, calcium mobilization (FLIPR), read-out: M4 Efficacy): 65 to 85%

CC#CC(C)OC(=O)N1C2CCC1CC(N1CCC3(CC1)CN(C(C)=O)c1ccccc13)C2 (centres unmarked) [compound 515]
Emax (M1 muscarinic receptor; [5]): 25 to 100%
M1 Activity (M1 muscarinic receptor; [9]): xxx (activity was measured to be less than 2.0 μM)
Emax (M4 muscarinic receptor; [5]): 25 to 100%
M4 Activity (M4 muscarinic receptor; [10]): xxx (activity was measured to be less than 2.0 μM)

CN(C)C(=O)N1CC2(CCN(C3CCN(C(=O)[C@H]4CCCO4)CC3)CC2)c2cc(F)ccc21 [compound 520]
Emax (M1 muscarinic receptor; [5]): 25 to 100%
M1 Activity (M1 muscarinic receptor; [9]): x (activity was measured to be greater than 5.0 μM)
Emax (M4 muscarinic receptor; [5]): < 25%
M4 Activity (M4 muscarinic receptor; [10]): x (activity was measured to be greater than 5.0 μM)

CCOC(=O)N1CCC(N2CCC3(CC2)CN(C(C)=O)c2ccc(-c4ccccc4F)cc23)CC1 [compound 146]
M1 Activity (M1 muscarinic receptor; [1]): xxx (activity was measured to be less than 0.1 μM)
Emax (M1 muscarinic receptor; [2]): > 85%
M4 Activity (M4 muscarinic receptor; [3]): xxx (activity was measured to be less than 0.1 μM)
Emax (M4 muscarinic receptor; [4]): > 85%

CC(=O)N[C@H]1CC2(CCN(CC3CCCCC3)CC2)c2ccccc21 [compound 184]
M1 Activity (M1 muscarinic receptor; [1]): xx (activity was measured to be between 0.1 μM and 1.0 μM)
Emax (M1 muscarinic receptor; [2]): > 85%
M4 Activity (M4 muscarinic receptor; [3]): x (activity was measured to be greater than 1.0 μM)
Emax (M4 muscarinic receptor; [4]): 65 to 85%
